The text below walks through data of ChEMBL document CHEMBL1153623, “Synthesis and bioactivity of substituted indan-1-ylideneaminoguanidine derivatives” (Eur J Med Chem, 2009).

Assay [1] deals with Sodium/hydrogen exchanger 1 (Rattus norvegicus, UniProt P26431). Nature of the assay: Inhibition of NHE1 in Sprague-Dawley rat platelet-rich plasma by optical swelling assay.
In assay [2] the test system is Rattus norvegicus. Kind of assay: Cardioprotective activity against ischemic Sprague-Dawley rat heart assessed as reduction in infarct size at 1 mg/kg, iv treated 5 mins before left anterior descending coronary artery occlusion measured after 2 hrs of reperfusion by Evans staining. The arrangement: scale not given: the % may be the effect or the level left. It is filed as functional.

In assay [3] the test system is Rattus norvegicus. Kind of assay: Cardioprotective activity against ischemic Sprague-Dawley rat heart assessed as serum creatine kinase level at 1 mg/kg, iv treated 5 mins before left anterior descending coronary artery occlusion measured after 2 hrs of reperfusion by Evans staining. It is filed as functional.
In assay [4] the test system is Rattus norvegicus. Nature of the assay: Cardioprotective activity against ischemic Sprague-Dawley rat heart assessed as reduction in infarct size at 0.5 mg/kg, iv treated 5 mins before left anterior descending coronary artery occlusion measured after 2 hrs of reperfusion by Evans staining. It is filed as functional. Set-up: scale not given: the % may be the effect or the level left.

The test system of assay [5] is Rattus norvegicus. Nature of the assay: Cardioprotective activity against ischemic Sprague-Dawley rat heart assessed as serum creatine kinase level at 0.25 mg/kg, iv treated 5 mins before left anterior descending coronary artery occlusion measured after 2 hrs of reperfusion by Evans staining. In kind it is functional.
In assay [6] the test system is Rattus norvegicus. Kind of assay: Cardioprotective activity against ischemic Sprague-Dawley rat heart assessed as reduction in infarct size at 0.25 mg/kg, iv treated 5 mins before left anterior descending coronary artery occlusion measured after 2 hrs of reperfusion by Evans staining. The arrangement: scale not given: the % may be the effect or the level left. It is filed as functional.

Assay [7] concerns Rattus norvegicus. Kind of assay: Cardioprotective activity against ischemic Sprague-Dawley rat heart assessed as serum creatine kinase level at 0.5 mg/kg, iv treated 5 mins before left anterior descending coronary artery occlusion measured after 2 hrs of reperfusion by Evans staining. In kind it is functional.
Assay [8] addresses Sodium/hydrogen exchanger 1 (Rattus norvegicus) (UniProt P26431). Nature of the assay: Ratio of cariporide IC50 to compound IC50 for NHE1 in Sprague-Dawley rat platelet-rich plasma by optical swelling assay.

Sodium/hydrogen exchanger 1, sequence (P26431 whole entry, the tested form may be a part): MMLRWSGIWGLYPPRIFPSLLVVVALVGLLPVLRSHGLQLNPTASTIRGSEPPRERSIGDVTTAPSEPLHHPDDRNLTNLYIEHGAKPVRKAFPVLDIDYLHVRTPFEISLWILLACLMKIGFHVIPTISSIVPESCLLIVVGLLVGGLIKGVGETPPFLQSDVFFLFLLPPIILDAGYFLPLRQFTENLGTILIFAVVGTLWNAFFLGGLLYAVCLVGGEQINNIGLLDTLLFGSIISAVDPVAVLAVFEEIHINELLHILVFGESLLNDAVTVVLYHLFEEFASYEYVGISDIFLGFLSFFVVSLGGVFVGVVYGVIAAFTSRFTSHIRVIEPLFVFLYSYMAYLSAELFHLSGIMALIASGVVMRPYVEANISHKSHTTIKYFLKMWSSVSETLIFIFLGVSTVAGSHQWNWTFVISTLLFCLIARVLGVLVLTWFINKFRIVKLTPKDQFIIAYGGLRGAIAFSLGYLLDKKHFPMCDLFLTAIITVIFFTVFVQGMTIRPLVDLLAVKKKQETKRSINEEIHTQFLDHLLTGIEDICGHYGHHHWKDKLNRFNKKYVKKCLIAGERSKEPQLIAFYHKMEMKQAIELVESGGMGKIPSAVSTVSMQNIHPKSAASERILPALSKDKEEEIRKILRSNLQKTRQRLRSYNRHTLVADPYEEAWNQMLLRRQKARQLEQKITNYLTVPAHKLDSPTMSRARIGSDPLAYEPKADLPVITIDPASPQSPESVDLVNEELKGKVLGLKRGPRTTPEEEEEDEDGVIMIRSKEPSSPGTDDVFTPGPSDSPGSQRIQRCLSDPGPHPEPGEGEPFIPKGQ
Sodium/hydrogen exchanger 1 (Rattus norvegicus), sequence (P26431 whole entry): as the sequence (P26431 whole entry, the tested form may be a part) above

Molecule `COc1cc2c(cc1OC)/C(=N\N=C(N)N)C(Sc1nc3ccccc3[nH]1)C2` (configuration not stated) displayed a 50% inhibitory concentration (IC50) in assay [1] of 11.2 nM. Same read-out and setting: then `NC(N)=N/N=C1\c2ccc(Cl)cc2CC1Sc1nc2ccccc2[nH]1` (configuration not stated), with 21.4 nM; and `NC(N)=N/N=C1\c2cc(Cl)cc(Cl)c2CC1Sc1nc2ccccc2[nH]1` (configuration not stated), with 654 nM.

For the molecule `COc1cc2c(cc1OC)/C(=N\N=C(N)N)C(Sc1nc3ccccc3s1)C2` (configuration not stated), the IC50 in assay [1] came to 2.44 nM. For the molecule `CC(C)c1ccc(C(=O)N=C(N)N)cc1S(C)(=O)=O` [CARIPORIDE], the Activity was found to be 45.74% in the assay on Rattus norvegicus [2] and 3.53 U/ml in the assay on Rattus norvegicus [3]. `NC(N)=N/N=C1\c2cc(F)ccc2CC1Sc1nc2ccccc2s1` (configuration not stated) showed an IC50 in assay [1] of 287 nM.

With `NC(N)=N/N=C1\c2cc(F)ccc2CC1Sc1nc2cc([N+](=O)[O-])ccc2[nH]1` (configuration not stated), the IC50 in assay [1] stood at 38 nM. Still for that read-out and setting: with `NC(N)=N/N=C1\c2cc(Cl)ccc2CC1Sc1nc2ccccc2s1` (configuration not stated) the figure was 34.6 nM. With `COc1ccc2c(c1)/C(=N\N=C(N)N)C(Sc1nc3ccccc3s1)C2.Cl` (configuration not stated), the Activity in the assay on Rattus norvegicus [2] is 43.24%; with Rattus norvegicus [3] it was 3.38 U/ml. The molecule also gave an IC50 in assay [1] of 1.9 nM.

In assay [1], `NC(N)=N/N=C1\c2cc(Cl)ccc2CC1Sc1nc2ccccc2[nH]1` (configuration not stated) displayed an IC50 of 326 nM. `COc1cc2c(c(OC)c1OC)CC(Sc1nc3cc([N+](=O)[O-])ccc3[nH]1)/C2=N/N=C(N)N` (configuration not stated) yielded an IC50 in assay [1] of 31.5 nM. In assay [1], `COc1cc2c(c(OC)c1OC)CC(Sc1nc3ccccc3[nH]1)/C2=N/N=C(N)N` (configuration not stated) had an IC50 of 10.8 nM.

For `NC(N)=N/N=C1\c2cc(Cl)ccc2CC1Sc1nc2cc([N+](=O)[O-])ccc2[nH]1` (configuration not stated), in assay [1], 38.9 nM corresponded to half-maximal inhibition (IC50). Same read-out and setting: with `NC(N)=N/N=C1\c2ccc([N+](=O)[O-])cc2CC1Sc1nc2ccccc2[nH]1` (configuration not stated) the figure was 1.17 nM. In assay [1], `COc1ccc2[nH]c(SC3Cc4ccccc4/C3=N\N=C(N)N)nc2c1` (configuration not stated) came in with an IC50 of 16.8 nM. The same measure, in the same setting: with `NC(N)=N/N=C1\c2ccc(Cl)cc2CC1Sc1nc2ccccc2s1` (configuration not stated) the figure was 2.34 nM.

Consider `Br.COc1ccc2[nH]c(SC3Cc4cc(Cl)ccc4/C3=N\N=C(N)N)nc2c1.Cl` (configuration not stated), for which the Activity with Rattus norvegicus [4] turned out to be 40.87%; in the assay with Rattus norvegicus [2], 36.16%; in the assay with Rattus norvegicus [5], 3.72 U/ml; in the assay with Rattus norvegicus [6], 42.27%; in the assay with Rattus norvegicus [7], 3.34 U/ml; with Rattus norvegicus [3], 2.82 U/ml. The molecule also had an IC50 in assay [1] of 0.94 nM. The Ratio IC50 in assay [8] is 69. `NC(N)=N/N=C1\c2cccc(Cl)c2CC1Sc1nc2ccccc2s1` (configuration not stated) displayed a half-maximal inhibitory concentration (IC50) in assay [1] of 20.3 nM.

Molecule `COc1ccc2[nH]c(SC3Cc4ccc(F)cc4/C3=N\N=C(N)N)nc2c1` (configuration not stated) returned an IC50 in assay [1] of 25.5 nM. With `Cl.NC(N)=N/N=C1\c2ccccc2CC1Sc1nc2cc([N+](=O)[O-])ccc2[nH]1` (configuration not stated), the Activity in the assay with Rattus norvegicus [2] turned out to be 49.18%; in the assay with Rattus norvegicus [3], 4.12 U/ml. Further, the IC50 in assay [1] came to 1.74 nM. Turning to `COc1cc2c(c(OC)c1OC)CC(Sc1nc3ccccc3s1)/C2=N/N=C(N)N` (configuration not stated), the half-inhibitory concentration (IC50) in assay [1] turned out to be 1.98 nM. On the same count and under the same terms, then `NC(N)=N/N=C1\c2ccc(Cl)cc2CC1Sc1nc2cc([N+](=O)[O-])ccc2[nH]1` (configuration not stated), with 12.2 nM. For `Cl.Cl.NC(N)=N/N=C1\c2ccccc2CC1Sc1nc2ccccc2[nH]1` (configuration not stated), the results for the Activity with Rattus norvegicus [2] and with Rattus norvegicus [3] were 42.89% and 3.02 U/ml, respectively. Further, it took 1.73 nM to reach half-maximal inhibition in assay [1] (IC50).
